Assays:
Assay type in all cases: biochemical
[1] = tested on: PI 3-kinase immunoprecipitated from human platelets; experiment: In vitro PI 3-kinase assay (32P incorporation into PI); settings: PI 3-kinase from human platelets, PI substrate
Description: The effect of TGX-25, TGX-33, TGX-37, TGX-40, TGX-41, TGX-57, TGX-84, TGX-90, TGX-93, TGX-98, TGX-99, TGX-101, TGX-106, TGX-107, TGX-108, TGX-109, TGX-111, TGX-112, TGX-113, TGX-115, TGX-120, TGX-121, TGX-123, TGX-124, TGX-126, TGX-127, TGX-130 or TGX-131on PI 3-kinase activity was determined using an in vitro PI 3-kinase assay. This assay was performed using PI 3-kinase immunoprecipitated from human platelets as the enzyme and PI as the substrate. The PI 3-kinase activity was quantitated by measuring the enzymatic incorporation of [^32P] into PI, forming PI([^32P]-3)P, as previously described (Susa et al., 1992, The Journal of Biological Chemistry 267(32):22951-22956.
Washed human platelets were lysed in Triton X-100 lysis buffer (10 mM Tris, pH 7.4, 1% Triton X-100, 2 mM EDTA, 1 mM PMSF) for 30 minutes. The Triton X-100 insoluble fraction was removed by centrifugation of the cell lysates at 15,000 g for 10 minutes. PI 3-kinase was immunoprecipitated by mixing 500 μg of the cell lysate with 1 μg of a rabbit anti-rat antibody against the p85/110 form of PI 3-kinase and 30 μl of 50% Protein A-sepharose beads for 2 hours at 4° C. The Protein A-sepharose-bound PI 3-kinase was isolated by pelleting the beads at 15,000 g for 5 seconds, and washing three times with ice-old Triton X-100 lysis buffer followed by four washes with PI 3-kinase assay buffer (20 mM HEPES, pH 7.4, 1 mM EGTA, 5 mM MgCl2).
PI stored in CHCl3 was dried under N2, resuspended in the lipid buffer (50 mM HEPES, pH 7.2, 1 mM EDTA) at a final concentration of 330 μg/ml, and sonicated for 6 minutes on ice. PI([^32P]-3)P was generated by mixing the immunoprecipitated PI 3-kinase for 20 minutes with 40 μl of the PI, 10 μl of ATP (1 mM) and ^32P-r-ATP (0.5 μCi, 1 μCi/nmol), 10 μl of 10× kinase buffer, in a final assay volume of 100 μl adjusted with H2O. TGX-25, TGX-33, TGX-37, TGX-40, TGX-41, TGX-57, TGX-84, TGX-90, TGX-93, TGX-98, TGX-99, TGX-101, TGX-106, TGX-107, TGX-108, TGX-109, TGX-111, TGX-112, TGX-113, TGX-115, TGX-120, TGX-121, TGX-123, TGX-124, TGX-126, TGX-127, TGX-130 or TGX-131 was preincubated with the PI 3-kinase for 5 minutes prior to the addition of ATP. The assay was terminated with 100 μl of 1 N HCl, and the PI([^32P]-3)P product extracted with 200 μl chloroform:methanol (1:1) and 500 μl 2 M KCl. The PI([^32P]-3)P in the chloroform phase was resolved by thin layer chromatography using a solvent system containing CHCl3:MeOH:HAC:H2O (43:38:5:7) (v:v:v:v), and visualized by autoradiography. The PI([^32P]-3)P spots were then scraped off from the TLC plates, deacylated with 1 ml methylamine:butanol:methanol (42:9:47) (v:v:v) for 4 hours at 53° C., and quantitated using a liquid scintillation counter (LKB 1209 RackBETA).

[2] = molecular target: T1, PI3K γ (Homo sapiens, UniProt P48736); experiment: In vitro enzyme assay PI3K γ (recombinant); settings: recombinant γ isoform
T1 construct: made in house
T1 sequence (P48736 whole entry, species assumed, canonical isoform): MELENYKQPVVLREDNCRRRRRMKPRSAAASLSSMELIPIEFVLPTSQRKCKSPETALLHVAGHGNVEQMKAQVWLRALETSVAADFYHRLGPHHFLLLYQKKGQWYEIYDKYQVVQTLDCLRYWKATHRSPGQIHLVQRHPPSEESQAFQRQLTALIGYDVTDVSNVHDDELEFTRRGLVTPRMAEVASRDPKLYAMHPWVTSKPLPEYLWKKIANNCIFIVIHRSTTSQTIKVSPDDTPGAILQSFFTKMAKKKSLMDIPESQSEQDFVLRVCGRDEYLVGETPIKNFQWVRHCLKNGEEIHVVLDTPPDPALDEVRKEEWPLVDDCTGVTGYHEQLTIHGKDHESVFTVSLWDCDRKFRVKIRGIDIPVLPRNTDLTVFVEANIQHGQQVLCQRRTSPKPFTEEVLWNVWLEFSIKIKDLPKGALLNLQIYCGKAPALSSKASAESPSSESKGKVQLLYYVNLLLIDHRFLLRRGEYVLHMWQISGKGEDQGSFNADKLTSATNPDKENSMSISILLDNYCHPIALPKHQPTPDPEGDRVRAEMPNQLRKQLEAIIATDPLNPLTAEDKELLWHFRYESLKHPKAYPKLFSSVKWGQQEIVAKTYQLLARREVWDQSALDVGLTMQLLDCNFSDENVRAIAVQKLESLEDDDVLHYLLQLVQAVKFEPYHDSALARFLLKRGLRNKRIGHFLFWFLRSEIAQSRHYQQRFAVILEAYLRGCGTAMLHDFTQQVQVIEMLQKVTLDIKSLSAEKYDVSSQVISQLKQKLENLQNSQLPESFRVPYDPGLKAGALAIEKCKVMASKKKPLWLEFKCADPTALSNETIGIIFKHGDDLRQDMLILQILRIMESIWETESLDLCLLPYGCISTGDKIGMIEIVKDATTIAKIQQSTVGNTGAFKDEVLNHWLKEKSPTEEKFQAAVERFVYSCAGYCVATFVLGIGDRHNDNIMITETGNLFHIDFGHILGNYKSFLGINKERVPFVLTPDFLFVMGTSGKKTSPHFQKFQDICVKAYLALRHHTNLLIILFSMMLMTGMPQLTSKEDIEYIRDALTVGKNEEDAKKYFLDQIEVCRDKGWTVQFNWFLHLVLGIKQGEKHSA
Description: (§1) In vitro enzyme assays were conducted as a primary screen to determine drug candidate isoform affinity and specificity.
(§2) The α and β isoforms of the PI3K were immunoprecipitated from a platelet lysate using an antibody that recognised the p85 regulatory subunit common to both forms of the enzyme. The γ isoform was produced as a recombinant protein in the Thrombogenix laboratories. […] Standard phosphorylation assays using phosphatidylinositol and ^32P were used to measure the enzyme activity in the immunoprecipates in the presence or absence of an inhibitor. Enzyme activity was determined over a range of inhibitor concentrations to establish an IC50 value.

[3] = molecular target: PI3K α/β isoforms; experiment: In vitro enzyme assay PI3K α/β; settings: immunoprecipitated from platelet lysate
Description: as §1, §2

| SMILES | IC50 [1] | IC50 [2] | IC50 [3] |
| --- | --- | --- | --- |
| Cc1cccn2c(=O)cc(N3CCOCC3)nc12 [TGX-25] | ~11100 nM |  |  |
| O=c1cc(N2CCOCC2)nc2c(-c3ccccc3)cccn12 [TGX-37] | ~10500 nM |  |  |
| Cc1cc(-c2ccccc2)c2nc(N3CCOCC3)cc(=O)n2c1 [TGX-41] | ~9800 nM |  |  |
| O=c1cc(N2CCOCC2)[nH]c2c(Cc3ccccc3)cccc12 [TGX-57, 8-Benzyl-2-morpholinoquinolone] | 2000 nM |  |  |
| O=c1cc(N2CCOCC2)oc2c(Cc3ccccc3)cccc12 [TGX-90, 2-morpholinyl-8-(phenylmethyl)-4H-1-benzopyran-4-one] | 100 nM | 3000 nM | 100 nM |
| Cc1cc(-c2ccsc2)c2nc(N3CCOCC3)cc(=O)n2c1 [TGX-93] | 1000 nM |  |  |
| Cc1cc(CCc2ccncc2)c2nc(N3CCOCC3)cc(=O)n2c1 [TGX-98] | 1000 nM |  |  |
| O=c1cc(N2CCOCC2)[nH]c2c(Cc3ccc(F)cc3)cccc12 [TGX-99] | 1000 nM |  |  |
| Cc1cc(Nc2ccc(O)cc2)c2nc(N3CCOCC3)cc(=O)n2c1 [TGX-101] | 100 nM | 2000 nM | 100 nM |
| O=c1cc(N2CCOCC2)oc2c(OCc3ccccc3)cccc12 [TGX-102] | 100 nM | 2000 nM | 100 nM |
| Cc1ccc(Cc2cccc3c(=O)cc(N4CCOCC4)[nH]c23)cc1 [TGX-106] | 2000 nM |  |  |
| Cc1cc(Nc2ccc(Cl)cc2)c2nc(N3CCOCC3)cc(=O)n2c1 [TGX-107] | 1000 nM |  |  |
| Cc1cc(NCc2ccc(Cl)cc2)c2nc(N3CCOCC3)cc(=O)n2c1 [TGX-108] | 1000 nM |  |  |
| Cc1ccc(Oc2cc(C)cn3c(=O)cc(N4CCOCC4)nc23)cc1 [TGX-109] | 1000 nM |  |  |
| O=c1cc(N2CCOCC2)[nH]c2c(Sc3ccccc3)cccc12 [TGX-111] | 50 nM | > 10000 nM | 50 nM |
| Cc1cc(NCc2ccncc2)c2nc(N3CCOCC3)cc(=O)n2c1 [TGX-112] | 500 nM |  |  |
| Cc1ccc(Oc2cccc3c(=O)cc(N4CCOCC4)[nH]c23)cc1 [TGX-113] | 500 nM |  |  |
| Cc1ccccc1Oc1cccc2c(=O)cc(N3CCOCC3)[nH]c12 [TGX-115, 8-(2′-Methylphenoxy)-2-morpholino-4-quinoline] | 50 nM | 5000 nM | 50 nM |
| O=c1cc(N2CCOCC2)oc2cc(/C=C/c3ccccc3)ccc12 [TGX-118] | 10000 nM |  |  |

| SMILES | IC50 [1] | IC50 [2] | IC50 [3] |
| --- | --- | --- | --- |
| Cc1cc(Nc2ccncc2)c2nc(N3CCOCC3)cc(=O)n2c1 [TGX-120] | 1000 nM |  |  |
| O=c1cc(N2CCOCC2)[nH]c2c(Oc3ccc(F)cc3)cccc12 [TGX-121] | 50 nM | 5000 nM | 50 nM |
| Cc1cc(N[C@@H](C)c2ccccc2)c2nc(N3CCOCC3)cc(=O)n2c1 [TGX-124] | 1000 nM |  |  |
| O=c1cc(N2CCOCC2)oc2c(O)cccc12 [TGX-125] | 25000 nM |  |  |
| Cc1cc(NCc2ccccc2)c2nc(N3CCOCC3)cc(=O)n2c1 [TGX-126] | 50 nM | > 10000 nM | 50 nM |
| Cc1cccc(Oc2cccc3c(=O)cc(N4CCOCC4)[nH]c23)c1 [TGX-127] | 50 nM | 5000 to 10000 nM | 50 nM |
| Cc1cc(Nc2ccccc2O)c2nc(N3CCOCC3)cc(=O)n2c1 [TGX-130] | 200 nM |  |  |
| O=c1cc(N2CCOCC2)oc2c(OCc3cccnc3)cccc12 [TGX-132] | 1000 nM |  |  |
| O=c1cc(N2CCOCC2)oc2c(Oc3ccccc3)cccc12 [TGX-134, 2-(4-morpholinyl)-8-phenoxy-4H-1-benzopyran-4-one] | 100 nM | 200 nM | 100 nM |
| O=c1cc(N2CCOCC2)oc2c(-c3ccccc3C(F)(F)F)cccc12 [TGX-135, 2-morpholinyl-8-(2-trifluoromethylphenyl)-4H-1benzopyran-4-one] | 200 nM |  |  |
| COc1ccccc1CNc1cc(C)cn2c(=O)cc(N3CCOCC3)nc12 [TGX-137] | 50 nM | 5000 nM | 50 nM |
| Cc1ccc(S(=O)(=O)Oc2cccc3c(=O)cc(N4CCOCC4)[nH]c23)cc1 [TGX-138] | 1000 nM |  |  |
| Cc1cc(NCC2CCNCC2)c2nc(N3CCOCC3)cc(=O)n2c1 [TGX-139] | 1000 nM |  |  |
| O=c1cc(N2CCOCC2)nc2c(Oc3ccccc3)cccn12 [TGX-141, 2-Morpholinyl-8-phenoxy-4H-pyrido[1,2a]pyrimidin-4-one] | 1000 nM |  |  |
| Cc1cc(-c2ccccc2C(F)(F)F)c2nc(N3CCOCC3)cc(=O)n2c1 [TGX-142] | 2000 nM |  |  |
| O=c1cc(N2CCOCC2)[nH]c2c(Oc3ccccc3F)cccc12 [TGX-143] | 150 nM | 2000 nM | 150 nM |
| O=c1cc(N2CCOCC2)oc2cc(OCc3cccnc3)ccc12 [TGX-144] | 2000 nM |  |  |
| O=C(O)c1cccc(Oc2cccc3c(=O)cc(N4CCOCC4)[nH]c23)c1 [TGX-151] | 500 nM |  |  |

Continued, values first:

| IC50 [1] | IC50 [2] | IC50 [3] | SMILES |
| --- | --- | --- | --- |
| 2000 nM |  |  | Cc1ccccc1-c1cccc2c(=O)cc(N3CCOCC3)oc12 [TGX-145, 2-morpholinyl-8-(2-methylphenyl)-4H-1-benzopyran-4-one] |
| 500 nM |  |  | O=c1cc(N2CCOCC2)oc2c(-c3ccccc3Cl)cccc12 [TGX-146, 2-morpholinyl-8-(2-chlorophenyl)-4H-1-benzopyran-4-one] |
| 5000 nM |  |  | Cc1cc(Nc2ccccc2C(F)(F)F)c2nc(N3CCOCC3)cc(=O)n2c1 [TGX-147] |
| 500 nM |  |  | COC(=O)c1cccc(Oc2cccc3c(=O)cc(N4CCOCC4)[nH]c23)c1 [TGX-149] |
| 20000 nM |  |  | Cc1cc(C2CCN(C)C2=O)c2nc(N3CCOCC3)cc(=O)n2c1 (stereo not drawn) [TGX-153] |
| 10000 nM |  |  | Cc1c(OCc2ccccc2)ccc2c(=O)cc(N3CCOCC3)oc12 [TGX-154] |
| 5000 nM |  |  | Cc1c(Oc2ccccc2)ccc2c(=O)cc(N3CCOCC3)oc12 [TGX-157] |
| 5000 nM |  |  | Cc1c(Oc2ccccc2)ccc2c(=O)cc(N3CCOCC3)oc12 [TGX-158] |
| 10000 nM |  |  | Cc1c(Oc2ccccc2)ccc2c(=O)cc(N3CCOCC3)oc12 [TGX-159] |
| 2000 nM |  |  | Cc1c(Oc2ccccc2)ccc2c(=O)cc(N3CCOCC3)oc12 [TGX-160] |
| 500 nM |  |  | Cc1cc(NCc2ccccn2)c2nc(N3CCOCC3)cc(=O)n2c1 [TGX-161] |
| 2000 nM |  |  | Cc1cc(Nc2ccccc2OCCN(C)C)c2nc(N3CCOCC3)cc(=O)n2c1 [TGX-162] |
| 1000 nM |  |  | O=c1cc(N2CCOCC2)oc2c(-c3ccc(F)cc3)cccc12 [TGX-165, 2-morpholinyl-8-(4-fluorophenyl)-4H-1-benzopyran-4-one] |
| 200 nM |  |  | Cc1cc(Nc2ccc(F)cc2C)c2nc(N3CCOCC3)cc(=O)n2c1 [TGX-170] |
| 100 nM |  | 150 nM | Cc1cc(Oc2cccc3c(=O)cc(N4CCOCC4)oc23)ccc1F [TGX-173, 8-(4-fluoro-3-methylphenyl)oxy-2-morpholinyl-4H-1-benzopyran-4-one] |
| 100 nM | 5000 nM | 100 nM | Cc1cc(Nc2ccc(O)cc2C)c2nc(N3CCOCC3)cc(=O)n2c1 [TGX-174] |
| 10000 nM |  |  | Cc1cc(Nc2ncccc2C)c2nc(N3CCOCC3)cc(=O)n2c1 [TGX-179] |
| 1000 nM |  |  | Cc1cc(Cl)ccc1Oc1cccc2c(=O)cc(N3CCOCC3)[nH]c12 [TGX-180] |
|  |  | 50 nM | Cc1cc(CNc2ccccc2)c2nc(N3CCOCC3)cc(=O)n2c1 [TGX-183, 6-methyl-8-phenylaminomethyl-2-morpholinyl-4H-pyrido[1,2]pyrimidin-4-one] |

From US7405211B2, “Therapeutic morpholino-substituted compounds” (AstraZeneca AB, priority 2000, dated 2008)
